Test results reported in ChEMBL document CHEMBL1157309, “Sensitivity of cardiac background inward rectifying K+ outward current (IK1) to the alkaloids lepadiformines A, B, and C” (J Nat Prod, 2006).
Where a name gives a salt, the structure may show the parent alone. Activity calls are given as the source filed them. The calls are words filed in the database; no cut-off is given here.

Tests used:
[1] = test system: Pelophylax lessonae; test: Inhibition of Kir channel in frog sino-atrial myocytes assessed as blockade of barium and caesium-sensitive inward rectifying potassium outward current by whole cell patch clamp method; format: cell-based; details: Cardiac atrium
[2] = test system: Pelophylax lessonae; test: Inhibition of Kir channel in frog sino-atrial myocytes assessed as blockade of barium and caesium-sensitive inward rectifying potassium outward current at 1.6 uM by whole cell patch clamp method; format: cell-based; details: Cardiac atrium
[3] = Inhibition of Kir channel in frog sino-atrial myocytes assessed as half-maximal response for blockade of barium and caesium-sensitive inward rectifying potassium outward current by whole cell patch clamp method; format: cell-based, Pelophylax lessonae, Cardiac atrium
[4] = test system: Pelophylax lessonae; test: Inhibition of Kir channel in frog sino-atrial myocytes assessed as blockade of barium and caesium-sensitive inward rectifying potassium outward current potential at 4.1 uM by whole cell patch clamp method; format: cell-based; details: Cardiac atrium
[5] = test system: Pelophylax lessonae; test: Inhibition of Kir channel in frog sino-atrial myocytes assessed as blockade of barium and caesium-sensitive inward rectifying potassium outward current potential at 2.5 uM by whole cell patch clamp method; format: cell-based; details: Cardiac atrium
[6] = test system: Pelophylax lessonae; test: Inhibition of Kir channel in frog sino-atrial myocytes assessed as blockade of barium and caesium-sensitive inward rectifying potassium outward current potential at 3.3 uM by whole cell patch clamp method; format: cell-based; details: Cardiac atrium

SMILES	Activity [1]	Activity [2]	Kd [3] [µM]	Activity [4]	inhibition [5] [%]	Activity [6]
CCCCCC[C@@H]1CC[C@@H]2CCCC[C@]23CC[C@@H](CO)N13 [LEPADIFORMINE A HYDROCHLORIDE]	Dose-dependent effect	Active	1.42	–	–	–
CCCC[C@@H]1CC[C@@H]2CCCC[C@]23CC[C@@H](CO)N13 [LEPADIFORMINE B HYDROCHLORIDE]	–	–	1.56	Active	54	–
CCCC[C@@H]1CC[C@@H]2CCCC[C@]23CCCN13	–	–	–	–	8.4	inactive
